Values of other authors as cited in patent US6482832B1, “Heterocyclically substituted amides, their production and their use” (Abbott Laboratories, priority 1998, dated 2002).
Where two headings read alike, the source gives them in different places.

Tests used:
[1] = test system: calpain
[2] = test system: cells; conditions: surmount the cell membrane only with difficulty
[3] = test system: calpain-mediated cleavage of pp60src in platelets; conditions: activated platelets; Oda et al., J. Biol. Chem. 1993

| Compound | calpain inhibition ([1]; known calpain inhibitors) | effect on cells [2] | calpain inhibition ([1]; M. R. Angelastro et al., J. Med. Chem. 1990, 33, 11-13) | cleavage of pp60src [3] |
| --- | --- | --- | --- | --- |
| CC(C)C[C@H](NC(=O)[C@H]1O[C@@H]1C(=O)O)C(=O)NCCCCN=C(N)N [E 64] | good calpain inhibitors | poor effect on cells | – | – |
| Ph—CONH—CH(CH2Ph)—CO—COCOOCH3 | – | – | only a weak calpain inhibitor | – |
| CC(=O)N[C@@H](CC(C)C)C(=O)N[C@@H](CC(C)C)C(=O)N[C@H](C=O)CCCNC(=N)N [leupeptin] | good calpain inhibitors | poor effect on cells | – | – |
| CCCC[C@@H](C=O)NC(=O)[C@H](CC(C)C)NC(=O)OCc1ccccc1 [calpeptin] | – | – | – | can prevent the cleavage of pp60src |
